Source: patent publication US8906909B2 (Curis, Inc., priority 2009, dated 2014)

Columns and labels:
[1] = tested on: HDACs (HeLa cell nuclear extracts); test: HDAC enzymatic activity, Biomol Color de Lys system; type: biochemical
Procedure: (e) An In Vitro Assay which Determines the Ability of a Test Compound to Inhibit HDAC Enzymatic Activity.
HDAC inhibitory activity was assessed using the Biomol Color de Lys system (AK-500, Biomol, Plymouth Meeting, Pa.). Briefly, HeLa cell nuclear extracts were used as a source of HDACs. Different concentrations of test compounds were serially diluted in dimethylsulphoxide (DMSO) and added to HeLa cell nuclear extracts in the presence of a colorimetric artificial substrate. Final assay condition contained 50 mM Tris/Cl, pH 8.0, 137 mM NaCl, 2.7 mM KCl and 1 mM MgCl2. Reactions were carried in room temperature (25° C.) for 1 hour before addition of developer for termination. Relative enzyme activity was measured in the WALLAC Victor II 1420 microplate reader as floorescence intensity (excitation: 350-380 nm; emission: 440-460 nm). Data were analyzed using GraphPad Prism (v4.0a) with a sigmoidal dose response curve fitting for IC50 calculation.

Row | SMILES | IC50 [1] | melting point
1 | CS(=O)(=O)N1CCN(Cc2cc3nc(-c4cccc5c4cnn5CCCCCCC(=O)NO)nc(N4CCOCC4)c3s2)CC1 [Compound 5, N-hydroxy-7-(4-(6-((4-(methylsulfonyl)piperazin-1-yl)methyl)-4-morpholinothieno[3,2-d]pyrimidin-2-yl)-1H-indazol-1-yl)heptanamide] | < 100 nM | 127 to 130 °C
2 | CS(=O)(=O)N1CCN(Cc2cc3nc(-c4cccc5nn(CCCCC(=O)NO)cc45)nc(N4CCOCC4)c3s2)CC1 [Compound 7, N-hydroxy-5-(4-(6-((4-(methylsulfonyl)piperazin-1-yl)methyl)-4-morpholinothieno[3,2-d]pyrimidin-2-yl)-2H-indazol-2-yl)pentanamide] | 100 to 1000 nM | 146 to 169 °C
3 | CS(=O)(=O)N1CCN(Cc2cc3nc(-c4cccc5nn(CCCCCC(=O)NO)cc45)nc(N4CCOCC4)c3s2)CC1 [Compound 8, N-hydroxy-6-(4-(6-((4-(methylsulfonyl)piperazin-1-yl)methyl)-4-morpholinothieno[3,2-d]pyrimidin-2-yl)-2H-indazol-2-yl)hexanamide] | < 100 nM | 124 to 125 °C
4 | CS(=O)(=O)N1CCN(Cc2cc3nc(-c4cccc5nn(CCCCCCC(=O)NO)cc45)nc(N4CCOCC4)c3s2)CC1 [Compound 9, N-hydroxy-7-(4-(6-((4-(methylsulfonyl)piperazin-1-yl)methyl)-4-morpholinothieno[3,2-d]pyrimidin-2-yl)-2H-indazol-2-yl)heptanamide] | < 100 nM | 123 to 126 °C
5 | O=C(CCCCN1CCN(Cc2cc3nc(-c4cccc5[nH]ncc45)nc(N4CCOCC4)c3s2)CC1)NO [Compound 11, 5-(4-((2-(1H-indazol-4-yl)-4-morpholinothieno[3,2-d]pyrimidin-6-yl)methyl)piperazin-1-yl)-N-hydroxypentanamide] |  | 125 to 127 °C
6 | O=C(CCCCCN1CCN(Cc2cc3nc(-c4cccc5[nH]ncc45)nc(N4CCOCC4)c3s2)CC1)NO [Compound 12, 6-(4-((2-(1H-indazol-4-yl)-4-morpholinothieno[3,2-d]pyrimidin-6-yl)methyl)piperazin-1-yl)-N-hydroxyhexanamide] | 100 to 1000 nM | 123 to 124 °C
7 | O=C(CCCCCCN1CCN(Cc2cc3nc(-c4cccc5[nH]ncc45)nc(N4CCOCC4)c3s2)CC1)NO [Compound 13, 7-(4-((2-(1H-indazol-4-yl)-4-morpholinothieno[3,2-d]pyrimidin-6-yl)methyl)piperazin-1-yl)-N-hydroxyheptanamide] | 100 to 1000 nM | 119 to 122 °C
8 | O=C(NO)c1cnc(N2CCN(Cc3cc4nc(-c5cccc6[nH]ncc56)nc(N5CCOCC5)c4s3)CC2)nc1 [Compound 14, 2-(4-((2-(1H-indazol-4-yl)-4-morpholinothieno[3,2-d]pyrimidin-6-yl)methyl)piperazin-1-yl)-N-hydroxypyrimidine-5-carboxamide] | < 100 nM | 209 to 221 °C
9 | O=C(NO)c1cnc(N2CCC(CNCc3cc4nc(-c5cccc6[nH]ncc56)nc(N5CCOCC5)c4s3)CC2)nc1 [Compound 15, 2-(4-(((2-(1H-indazol-4-yl)-4-morpholinothieno[3,2-d]pyrimidin-6-yl)methylamino)methyl)piperidin-1-yl)-N-hydroxypyrimidine-5-carboxamide] | < 100 nM | 170 to 172 °C
10 | CN(Cc1cc2nc(-c3cccc4[nH]ncc34)nc(N3CCOCC3)c2s1)CC1CCN(c2ncc(C(=O)NO)cn2)CC1 [Compound 16, 2-(4-((((2-(1H-indazol-4-yl)-4-morpholinothieno[3,2-d]pyrimidin-6-yl)methyl)(methyl)amino)methyl)piperidin-1-yl)-N-hydroxypyrimidine-5-carboxamide] | 100 to 1000 nM | 174 to 175 °C
11 | CS(=O)(=O)N1CCN(Cc2cc3nc(-c4cccc5[nH]ncc45)nc(N4CCN(CCCCC(=O)NO)CC4)c3s2)CC1 [Compound 30, 5-(4-(2-(1H-indazol-4-yl)-6-((4-(methylsulfonyl)piperazin-1-yl)methyl)thieno[3,2-d]pyrimidin-4-yl)piperazin-1-yl)-N-hydroxypentanamide] | 100 to 1000 nM | 142 to 145 °C
12 | CS(=O)(=O)N1CCN(Cc2cc3nc(-c4cccc5[nH]ncc45)nc(N4CCN(CCCCCC(=O)NO)CC4)c3s2)CC1 [Compound 31, 6-(4-(2-(1H-indazol-4-yl)-6-((4-(methylsulfonyl)piperazin-1-yl)methyl)thieno[3,2-d]pyrimidin-4-yl)piperazin-1-yl)-N-hydroxyhexanamide] | 100 to 1000 nM | 140 to 145 °C
13 | CS(=O)(=O)N1CCN(Cc2cc3nc(-c4cccc5[nH]ncc45)nc(N4CCN(CCCCCCC(=O)NO)CC4)c3s2)CC1 [Compound 32, 7-(4-(2-(1H-indazol-4-yl)-6-((4-(methylsulfonyl)piperazin-1-yl)methyl)thieno[3,2-d]pyrimidin-4-yl)piperazin-1-yl)-N-hydroxyheptanamide] | 100 to 1000 nM | 131 to 134 °C
14 | O=C(CCCNCc1cc2nc(-c3cccc4[nH]ncc34)nc(N3CCOCC3)c2s1)NO [Compound 41, 4-((2-(1H-indazol-4-yl)-4-morpholinothieno[3,2-d]pyrimidin-6-yl)methylamino)-N-hydroxybutanamide] | < 100 nM | 149 to 152 °C
15 | O=C(CCCCNCc1cc2nc(-c3cccc4[nH]ncc34)nc(N3CCOCC3)c2s1)NO [Compound 42, 5-((2-(1H-indazol-4-yl)-4-morpholinothieno[3,2-d]pyrimidin-6-yl)methylamino)-N-hydroxypentanamide] | < 100 nM | 145 to 147 °C
16 | O=C(CCCCCNCc1cc2nc(-c3cccc4[nH]ncc34)nc(N3CCOCC3)c2s1)NO [Compound 43, 6-((2-(1H-indazol-4-yl)-4-morpholinothieno[3,2-d]pyrimidin-6-yl)methylamino)-N-hydroxyhexanamide] | < 100 nM | 128 to 130 °C
17 | O=C(CCCCCCNCc1cc2nc(-c3cccc4[nH]ncc34)nc(N3CCOCC3)c2s1)NO [Compound 44, 7-((2-(1H-indazol-4-yl)-4-morpholinothieno[3,2-d]pyrimidin-6-yl)methylamino)-N-hydroxyheptanamide] | 100 to 1000 nM | 188 to 190 °C
18 | O=C(NO)c1ccc(NCc2cc3nc(-c4cccc5[nH]ncc45)nc(N4CCOCC4)c3s2)cc1 [Compound 78, 4-((2-(1H-indazol-4-yl)-4-morpholinothieno[3,2-d]pyrimidin-6-yl)methylamino)-N-hydroxybenzamide] | < 100 nM | 180 to 183 °C
19 | O=C(/C=C/c1ccc(NCc2cc3nc(-c4cccc5[nH]ncc45)nc(N4CCOCC4)c3s2)cc1)NO [Compound 80, (E)-3-(4-((2-(1H-indazol-4-yl)-4-morpholinothieno[3,2-d]pyrimidin-6-yl)methylamino)phenyl)-N-hydroxyacrylamide] | 100 to 1000 nM | > 300 °C
20 | CN(Cc1cc2nc(-c3cccc4[nH]ncc34)nc(N3CCOCC3)c2s1)c1ccc(/C=C/C(=O)NO)cc1 [Compound 81, (E)-3-(4-(((2-(1H-indazol-4-yl)-4-morpholinothieno[3,2-d]pyrimidin-6-yl)methyl)(methyl)amino)phenyl)-N-hydroxyacrylamide] | 1000 to 10000 nM | 188 to 190 °C
21 | CC(C)(C)CN(Cc1cc2nc(-c3cccc4[nH]ncc34)nc(N3CCOCC3)c2s1)c1ncc(C(=O)NO)cn1 [Compound 83, 2-(((2-(1H-indazol-4-yl)-4-morpholinothieno[3,2-d]pyrimidin-6-yl)methyl)(neopentyl)amino)-N-hydroxypyrimidine-5-carboxamide] | 1000 to 10000 nM | 240 to 242 °C
22 | CCCN(Cc1cc2nc(-c3cccc4[nH]ncc34)nc(N3CCOCC3)c2s1)c1ncc(C(=O)NO)cn1 [Compound 84, 2-(((2-(1H-indazol-4-yl)-4-morpholinothieno[3,2-d]pyrimidin-6-yl)methyl)(propyl)amino)-N-hydroxypyrimidine-5-carboxamide] | < 100 nM | 224 to 226 °C
23 | CCCCN(Cc1cc2nc(-c3cccc4[nH]ncc34)nc(N3CCOCC3)c2s1)c1ncc(C(=O)NO)cn1 [Compound 85, 2-(((2-(1H-indazol-4-yl)-4-morpholinothieno[3,2-d]pyrimidin-6-yl)methyl)(butyl)amino)-N-hydroxypyrimidine-5-carboxamide] | < 100 nM | 234 to 236 °C
24 | CC(C)CN(Cc1cc2nc(-c3cccc4[nH]ncc34)nc(N3CCOCC3)c2s1)c1ncc(C(=O)NO)cn1 [Compound 93, 2-(((2-(1H-indazol-4-yl)-4-morpholinothieno[3,2-d]pyrimidin-6-yl)methyl)(isobutyl)amino)-N-hydroxypyrimidine-5-carboxamide] | 100 to 1000 nM | 196 to 198 °C
25 | COc1ccc(-c2nc(N3CCOCC3)c3sc(CN(C)c4ncc(C(=O)NO)cn4)cc3n2)cc1 [Compound 131, N-hydroxy-2-(((2-(4-methoxyphenyl)-4-morpholinothieno[3,2-d]pyrimidin-6-yl)methyl)(methyl)amino)pyrimidine-5-carboxamide] |  | 247 °C (dec.)
26 | CC(=O)NCc1ccc(-c2nc(N3CCOCC3)c3sc(CN(C)c4ncc(C(=O)NO)cn4)cc3n2)cc1 [Compound 136, 2-(((2-(4-(acetamidomethyl)phenyl)-4-morpholinothieno[3,2-d]pyrimidin-6-yl)methyl)(methyl)amino)-N-hydroxypyrimidine-5-carboxamide] |  | 178 to 180 °C
